System: SCID CD4+ CD45RBhigh T cell transfer colitis model
Assay: SCID CD4+ CD45RBhigh T cell transfer colitis model
Assay type: in vivo, SCID mice
Settings: for Total number of leukocytes (cells/μL): blood on the day after final administration; for Total number of leukocytes (cells/μL) / Change ratio of body weight (%) On the fourth week / Change ratio of body weight (%) On the third week: mean ± standard error
From the text: SCID CD4^+ CD45RB^high T cell transfer colitis model has been reported as a model resembling to Crohn's disease due to its histopathological characteristics and the produced cytokines (Powrie F et al, Immunity, 1, 553-562, 1994). In addition, this model has also been used for evaluation of a medicine which is used in the treatment of inflammatory bowel disease and its effectiveness has been reported (Liu Z et al., J. Autoimmunl., 29, 187-194, 2007).
C.B-17/Icr-scid/scid Jcl (SCID mice) (female, 8 weeks of age, mouse to be transferred) and BALB/c Cr Slc (BALB/c mice) (female, 8 weeks of age, mouse for transfer cell preparation) were obtained and used in the test. CD4^+ CD45RB^high T cells (naive T cells) prepared from the spleen of BALB/c mice were transferred intraperitoneally into the SCID mice at a concentration of 3×10^5 cells/body, and then colitis was induced by breeding it for 4 weeks. Preparation of the CD4^+ CD45RB^high T cells was carried out in accordance with the method of Uraushihara et al. (J. Immunol., 171, 708-716, 2003) and FACSAriaCell Sorter (Becton Dickinson Japan) was used as a cell separator.
The compound produced in Example 27 (compound 27) was dissolved in distilled water and orally administered at doses of 0.3 mg/kg, 1 mg/kg and 3 mg/kg, once a day for 4 weeks starting on the preceding day of cell transfer. Distilled water alone was administered to the vehicle group. Body weight was determined every day during the administration period. The change ratio (%) of the body weight on the determination day was calculated based on the body weight on the day of the start of administration. On the next day of final administration, blood was collected and the large intestine was extracted. The total number of leukocytes was measured using the collected blood. After fixing the extracted large intestine with formalin, tissue sections were prepared and hematoxylin-eosin staining was carried out. Evaluation was performed in accordance with the scoring system (Uraushihara K et al., J. Immunol., 171, 708-716, 2003). That is, the large intestine was roughly divided into 3 regions (proximal region, middle region and distal region), and scoring was carried out on the 3 layers, which are mucosa, submucosa and muscularis, of each region. By totaling the obtained scores of each region, the value having the highest total score among the three regions was used as the score of the individual. The change ratio of the body weight and the total number of leukocytes were shown by mean±standard error and the pathological score was shown by median.

[1] = 0.3 mg/kg orally once a day for 4 weeks
[2] = 1 mg/kg orally once a day for 4 weeks
[3] = 3 mg/kg orally once a day for 4 weeks
[4] = in comparison with the vehicle group, result in words

SMILES: C[C@](N)(CO)CCCc1ccc(Sc2cccc(C(F)(F)F)c2)cc1Cl.Cl [Compound 27, (R)-2-amino-5-[2-chloro-4-(3-trifluoromethylphenylthio)phenyl]-2-methylpentan-1-ol hydrochloride]
- Total number of leukocytes (cells/μL) [1]: 2733 ± 561 cells/μL
- Change ratio of body weight (%) On the fourth week [1]: −1.0 ± 2.2%
- Pathological score (0.3 mg/kg orally once a day for 4 weeks, large intestine histology, median): 5
- Change ratio of body weight (%) On the third week [1]: 1.1 ± 1.4 %
- Total number of leukocytes (cells/μL) [2]: 1980 ± 241 cells/μL
- Change ratio of body weight (%) On the fourth week [2]: −1.4 ± 2.0%
- Pathological score (1 mg/kg orally once a day for 4 weeks, large intestine histology, median): 5
- Change ratio of body weight (%) On the third week [2]: 1.5 ± 0.8 %
- Total number of leukocytes (cells/μL) [3]: 1720 ± 327 cells/μL
- Change ratio of body weight (%) On the fourth week [3]: −0.8 ± 2.0 %
- Pathological score (3 mg/kg orally once a day for 4 weeks, large intestine histology, median): 3.5
- Change ratio of body weight (%) On the third week [3]: 0.5 ± 1.2 %
- body weight loss [4]: significantly suppressed
- total number of leukocytes [4]: significantly suppressed
- effect on the SCID CD4+ CD45RBhigh T cell transfer colitis model (overall conclusion in words): shows the suppressive effect
- Pathological score (result in words): suppressive effect was found
